From patent publication US20260078120A1, “SUBSTITUTED PYRIDOPYRIMIDINONES” (MIRATI THERAPEUTICS, INC., priority 2022, published 2026)
pIC50: −log10 of the molar value. Like-named read-outs stand apart in the source and are kept apart here. One block for each molecule: values may come before it.

Assays:
[1] = tested on: T47D (PI3Kα H1047R mutant) cells; assay: CellTiter-Glo 2.0 luminescent cell viability assay, 72 hours, T47D cells; format: cell-based; details: T47D (PI3Kα H1047R mutant) cells, CellTiter-Glo, approximately 72 hours, read-out: T47D (H1047R mutant) Viability IC50
Procedure, shortened: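 Cells seeded at 1000 per well overnight were dosed with a 10-concentration, 1:4 series starting at 10 µM and incubated ~72 h at 37° C. Viability was read by CellTiter-Glo 2.0 luminescence after 30 min at room temperature. IC50 came from four-parameter fits of percent vehicle control.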

[2] = tested on: SKBR3 (PI3Kα wild type) cells; assay: CellTiter-Glo 2.0 luminescent cell viability assay, 72 hours, SKBR3 cells; format: cell-based; details: Homo sapiens, SK-BR-3, 72 h, SKBR3 (PI3Kα wild type) cells, CellTiter-Glo, approximately 72 hours; read-out: SKBR3 (WT) Viability IC50
Procedure, shortened: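 Viability measured via CTG luminescence following roughly 72 hours of compound exposure at 37° C. Dosing used a 10 um starting concentration diluted 1:4 over 10 points; percent-of-vehicle data fitted with a variable-slope four-parameter model for IC50.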

Structure (SMILES): Cc1cc(C(C)Nc2ccncc2C(=O)O)c2nc(N3Cc4ccccc4C3)c(C)c(=O)n2c1 (stereo not shown) [Example 11-350, 4-((1-(2-(isoindolin-2-yl)-3,7-dimethyl-4-oxo-4H-pyrido[1,2-a]pyrimidin-9-yl)ethyl)amino)nicotinic acid]
pIC50 ([1]; Homo sapiens, T47D, 72 h): < 5.00
pIC50 [2]: < 5.00

Structure (SMILES): Cc1cc([C@@H](C)Nc2ccccc2C(=O)O)c2nc(NCC3CCOC3)c(C#N)c(=O)n2c1 (stereo partly drawn) [Example 11-194, 2-(((1R)-1-(3-cyano-7-methyl-4-oxo-2-(((tetrahydrofuran-3-yl)methyl)amino)-4H-pyrido[1,2-a]pyrimidin-9-yl)ethyl)amino)benzoic acid]
pIC50 ([1]; Homo sapiens, T47D, 72 h): 6.23
pIC50 [2]: < 5.00

Structure (SMILES): Cc1cc([C@@H](C)NC(=O)C2(C(=O)O)CCC2)c2nc(N3CCCCC3)c(C#N)c(=O)n2c1 [Example 11-317, (R)-1-((1-(3-cyano-7-methyl-4-oxo-2-(piperidin-1-yl)-4H-pyrido[1,2-a]pyrimidin-9-yl)ethyl)carbamoyl)cyclobutane-1-carboxylic acid]
pIC50 ([1]; Homo sapiens, T47D, 72 h): < 5.00
pIC50 [2]: < 5.00

Structure (SMILES): COC1CN(c2nc3c([C@@H](C)Nc4ccccc4C(=O)O)cc(C)cn3c(=O)c2C#N)C1 [Example 11-111, (R)-2-((1-(3-cyano-2-(3-methoxyazetidin-1-yl)-7-methyl-4-oxo-4H-pyrido[1,2-a]pyrimidin-9-yl)ethyl)amino)benzoic acid]
pIC50 ([1]; Homo sapiens, T47D, 72 h): 6.55
pIC50 [2]: < 5.00

Structure (SMILES): Cc1cc(CNc2ccccc2C(=O)O)c2nc(N3CCCCC3)cc(=O)n2c1 [Example 11-412]
pIC50 ([1]; Homo sapiens, T47D, 72 h): < 5.00
pIC50 [2]: < 5.00

Structure (SMILES): Cc1cc([C@@H](C)Nc2ccccc2C(=O)O)c2nc(N3CCN(CC(F)(F)F)CC3)c(C#N)c(=O)n2c1 [Example 11-154, (R)-2-((1-(3-cyano-7-methyl-4-oxo-2-(4-(2,2,2-trifluoroethyl)piperazin-1-yl)-4H-pyrido[1,2-a]pyrimidin-9-yl)ethyl)amino)benzoic acid]
pIC50 ([1]; Homo sapiens, T47D, 72 h): 6.86
pIC50 [2]: < 5.00

Structure (SMILES): Cc1cc([C@@H](C)Nc2ccccc2C(=O)O)c2nc(N3CCN(S(C)(=O)=O)CC3)c(C#N)c(=O)n2c1 [Example 11-283, (R)-2-((1-(3-cyano-7-methyl-2-(4-(methylsulfonyl)piperazin-1-yl)-4-oxo-4H-pyrido[1,2-a]pyrimidin-9-yl)ethyl)amino)benzoic acid]
pIC50 ([1]; Homo sapiens, T47D, 72 h): 5.14
pIC50 [2]: < 5.00

Structure (SMILES): C[C@H](Nc1ccccc1C(=O)O)c1cc(C(F)F)cn2c(=O)c(C#N)c(N3CCC(F)(F)CC3)nc12 [Example 11-169, (S)-2-((1-(3-cyano-7-(difluoromethyl)-2-(4,4-difluoropiperidin-1-yl)-4-oxo-4H-pyrido[1,2-a]pyrimidin-9-yl)ethyl)amino)benzoic acid]
pIC50 ([1]; Homo sapiens, T47D, 72 h): < 5.00
pIC50 [2]: < 5.00

Structure (SMILES): Cc1cc([C@@H](C)Nc2ccccc2C(=O)O)c2nc(N3CCN(c4cn(C)nc4C(F)(F)F)CC3)c(C#N)c(=O)n2c1 [Example 11-173, (R)-2-((1-(3-cyano-7-methyl-2-(4-(1-methyl-3-(trifluoromethyl)-1H-pyrazol-4-yl)piperazin-1-yl)-4-oxo-4H-pyrido[1,2-a]pyrimidin-9-yl)ethyl)amino)benzoic acid]
pIC50 ([1]; Homo sapiens, T47D, 72 h): 6.84
pIC50 [2]: < 5.00

Structure (SMILES): Cc1cc([C@@H](C)Nc2ccccc2C(=O)O)c2nc(N3CCN(c4ccc(C#N)c5cc(O)ccc45)CC3)c(C)c(=O)n2c1 [Example 11-254, (R)-2-((1-(2-(4-(4-cyano-6-hydroxynaphthalen-1-yl)piperazin-1-yl)-3,7-dimethyl-4-oxo-4H-pyrido[1,2-a]pyrimidin-9-yl)ethyl)amino)benzoic acid]
pIC50 ([1]; Homo sapiens, T47D, 72 h): 6.91
pIC50 [2]: < 5.00

Structure (SMILES): Cc1cc([C@@H](C)Nc2ccc(F)nc2C(=O)O)c2nc(N3CCC(F)(F)CC3)c(C#N)c(=O)n2c1 [Example 11-44, (R)-3-((1-(3-cyano-2-(4,4-difluoropiperidin-1-yl)-7-methyl-4-oxo-4H-pyrido[1,2-a]pyrimidin-9-yl)ethyl)amino)-6-fluoropicolinic acid]
pIC50 ([1]; Homo sapiens, T47D, 72 h): 5.02
pIC50 [2]: < 5.00

Structure (SMILES): Cc1cc(C(C)Nc2cccc(C)c2C(=O)O)c2nc(N3CCCCC3)cc(=O)n2c1 (stereo not shown) [Example 11-390, 2-methyl-6-((1-(7-methyl-4-oxo-2-(piperidin-1-yl)-4H-pyrido[1,2-a]pyrimidin-9-yl)ethyl)amino)benzoic acid]
pIC50 ([1]; Homo sapiens, T47D, 72 h): < 5.00
pIC50 [2]: < 5.00

Structure (SMILES): Cc1cc([C@@H](C)Nc2ccccc2C(=O)O)c2nc(N3C[C@@H]4C[C@H]3CN4c3ccc(C#N)cc3)c(C#N)c(=O)n2c1 [Example 11-175, 2-(((R)-1-(3-cyano-2-((1S,4S)-5-(4-cyanophenyl)-2,5-diazabicyclo[2.2.1]heptan-2-yl)-7-methyl-4-oxo-4H-pyrido[1,2-a]pyrimidin-9-yl)ethyl)amino)benzoic acid]
pIC50 ([1]; Homo sapiens, T47D, 72 h): 5.52
pIC50 [2]: < 5.00

Structure (SMILES): Cc1cc([C@@H](C)Nc2ccccc2C(=O)O)c2nc(N3CC(C(F)(F)F)C3)c(C)c(=O)n2c1 [Example 11-107, (R)-2-((1-(3,7-dimethyl-4-oxo-2-(3-(trifluoromethyl)azetidin-1-yl)-4H-pyrido[1,2-a]pyrimidin-9-yl)ethyl)amino)benzoic acid]
pIC50 ([1]; Homo sapiens, T47D, 72 h): 6.86
pIC50 [2]: < 5.00

Next, values leading:

pIC50 ([1]; Homo sapiens, T47D, 72 h): 6.44
pIC50 [2]: < 5.00
Structure (SMILES): Cc1cc([C@@H](C)Nc2ccccc2C(=O)O)c2nc(N3CCN(c4ccccc4)CC3C)c(C)c(=O)n2c1 (stereo partly drawn) [Example 11-268, 2-(((1R)-1-(3,7-dimethyl-2-(2-methyl-4-phenylpiperazin-1-yl)-4-oxo-4H-pyrido[1,2-a]pyrimidin-9-yl)ethyl)amino)benzoic acid]

pIC50 ([1]; Homo sapiens, T47D, 72 h): 6.50
pIC50 [2]: < 5.00
Structure (SMILES): Cc1cc([C@@H](C)Nc2ccccc2C(=O)O)c2nc(NCC(C)C)c(C)c(=O)n2c1 [Example 11-309, (R)-2-((1-(2-(isobutylamino)-3,7-dimethyl-4-oxo-4H-pyrido[1,2-a]pyrimidin-9-yl)ethyl)amino)benzoic acid]

pIC50 ([1]; Homo sapiens, T47D, 72 h): 5.92
pIC50 [2]: < 5.00
Structure (SMILES): Cc1cc([C@@H](C)Nc2ccccc2C(=O)O)c2nc(NC[C@H]3CCOC3)c(C#N)c(=O)n2c1 [Example 11-193, 2-(((R)-1-(3-cyano-7-methyl-4-oxo-2-((((R)-tetrahydrofuran-3-yl)methyl)amino)-4H-pyrido[1,2-a]pyrimidin-9-yl)ethyl)amino)benzoic acid]

pIC50 ([1]; Homo sapiens, T47D, 72 h): 6.32
pIC50 [2]: < 5.00
Structure (SMILES): Cc1cc([C@@H](C)Nc2ccccc2C(=O)O)c2nc(N3CC4(C3)CC4(F)F)c(C)c(=O)n2c1 [Example 11-103, (R)-2-((1-(2-(1,1-difluoro-5-azaspiro[2.3]hexan-5-yl)-3,7-dimethyl-4-oxo-4H-pyrido[1,2-a]pyrimidin-9-yl)ethyl)amino)benzoic acid]

pIC50 ([1]; Homo sapiens, T47D, 72 h): 6.57
pIC50 [2]: < 5.00
Structure (SMILES): Cc1cc([C@@H](C)Nc2ccccc2C(=O)O)c2nc(N3CCC(F)(F)C[C@H]3C)c(C)c(=O)n2c1 [Example 11-93, 2-(((R)-1-(2-((R)-4,4-difluoro-2-methylpiperidin-1-yl)-3,7-dimethyl-4-oxo-4H-pyrido[1,2-a]pyrimidin-9-yl)ethyl)amino)benzoic acid]

pIC50 ([1]; Homo sapiens, T47D, 72 h): 5.78
pIC50 [2]: < 5.00
Structure (SMILES): Cc1cc([C@@H](C)Nc2ccc(F)c(F)c2C(=O)O)c2nc(N3CCC(F)(F)CC3)c(C#N)c(=O)n2c1 [Example 11-88, (R)-6-((1-(3-cyano-2-(4,4-difluoropiperidin-1-yl)-7-methyl-4-oxo-4H-pyrido[1,2-a]pyrimidin-9-yl)ethyl)amino)-2,3-difluorobenzoic acid]

pIC50 ([1]; Homo sapiens, T47D, 72 h): < 5.00
pIC50 [2]: < 5.00
Structure (SMILES): Cc1cc(C(C)Nc2ccccc2P(C)(=O)O)c2nc(N3Cc4ccccc4C3)cc(=O)n2c1 (stereo not shown) [Example 11-333, (2-((1-(2-(isoindolin-2-yl)-7-methyl-4-oxo-4H-pyrido[1,2-a]pyrimidin-9-yl)ethyl)amino)phenyl)(methyl) phosphinic acid]

pIC50 ([1]; Homo sapiens, T47D, 72 h): < 5.00
pIC50 [2]: < 5.00
Structure (SMILES): Cc1cc(C(C)Nc2ccccc2C(=O)O)c2nc(-c3ccccc3C#N)cc(=O)n2c1 (stereo not shown) [Example 11-399, 2-((1-(2-(2-cyanophenyl)-7-methyl-4-oxo-4H-pyrido[1,2-a]pyrimidin-9-yl)ethyl)amino)benzoic acid]

pIC50 ([1]; Homo sapiens, T47D, 72 h): 5.03
pIC50 [2]: 5.03
Structure (SMILES): Cc1cc(C(C)Nc2ccccc2)c2nc(N3CCCCC3)c(C#N)c(=O)n2c1 (stereo not shown) [Example 11-299, 7-methyl-4-oxo-9-(1-(phenylamino)ethyl)-2-(piperidin-1-yl)-4H-pyrido[1,2-a]pyrimidine-3-carbonitrile]

pIC50 ([1]; Homo sapiens, T47D, 72 h): 5.84
pIC50 [2]: 5.05
Structure (SMILES): Cc1cc(C(C)Nc2ccccc2)c2nc(N3Cc4ccccc4C3)c(C#N)c(=O)n2c1 (stereo not shown) [Example 11-302, 2-(isoindolin-2-yl)-7-methyl-4-oxo-9-(1-(phenylamino)ethyl)-4H-pyrido[1,2-a]pyrimidine-3-carbonitrile]

pIC50 ([1]; Homo sapiens, T47D, 72 h): 6.73
pIC50 [2]: 5.34
Structure (SMILES): Cc1cc([C@@H](C)Nc2ccccc2C(=O)O)c2nc(N3CCN(c4ccc(C(F)(F)F)cc4C#N)C[C@H]3C)c(C)c(=O)n2c1 [Example 11-79, 2-(((R)-1-(2-((R)-4-(2-cyano-4-(trifluoromethyl)phenyl)-2-methylpiperazin-1-yl)-3,7-dimethyl-4-oxo-4H-pyrido[1,2-a]pyrimidin-9-yl)ethyl)amino)benzoic acid]

pIC50 [1]: 5.96
pIC50 [2]: 5.08
Structure (SMILES): Cc1cc([C@@H](C)Nc2ccc(Cl)nc2C(=O)O)c2nc(N3Cc4ccccc4C3)c(C)c(=O)n2c1 [Example 11-360, (R)-6-chloro-3-((1-(2-(isoindolin-2-yl)-3,7-dimethyl-4-oxo-4H-pyrido[1,2-a]pyrimidin-9-yl)ethyl)amino)picolinic acid]
